The values below come from the NIST ThermoML archive (doi:10.1016/j.jct.2016.11.003).

The conditions of series [1]: 298 K; 101 kPa; Crystal; X-ray diffraction.
Series [2] in a line: excess molar enthalpy (molar enthalpy of mixing); xn = mol fraction of the nth substance listed. The note with it: 298 K, 100 kPa, Crystal, Calvet calorimetry.
Series [3] in a line: xn = mol fraction of the nth substance listed. To be noted: 298 K, Crystal, X-ray diffraction.

± gives the expanded uncertainty stated by the source.

What is called mass density is mass per unit of volume. `O=P([O-])([O-])[O-].[Eu+3]` [europium phosphate]: the mass density in series [1] was determined as 5810 ± 40 kg/m3.

Turning to `O=P([O-])([O-])[O-].[Eu+3]` [europium phosphate] + O=P([O-])([O-])[O-].[La+3], the excess molar enthalpy was found to be 0.452 ± 0.43 kcal/mol in series [2] (x1 = 0.1); 0.234 ± 0.382 kcal/mol in series [2] (x1 = 0.11); 0.129 ± 0.311 kcal/mol in series [2] (x1 = 0.34); 0.203 ± 0.335 kcal/mol in series [2] (x1 = 0.58); 0.0478 ± 0.263 kcal/mol in series [2] (x1 = 0.71). Also, the mass density in series [3] (101 kPa, x1 = 0.11) amounted to 5130 ± 30 kg/m3; in series [3] (101 kPa, x1 = 0.23) it was 5210 ± 30 kg/m3; in series [3] (101 kPa, x1 = 0.4) it was 5340 ± 30 kg/m3; in series [3] (101 kPa, x1 = 0.58), 5470 ± 30 kg/m3; in series [3] (101 kPa, x1 = 0.71), 5570 ± 30 kg/m3; in series [3] (101 kPa, x1 = 0.82), 5660 ± 30 kg/m3. Besides, the mass density is on record as 5730 ± 30 kg/m3 in series [3] (101 kPa, x1 = 0.91) and 5810 ± 40 kg/m3 in series [3] (101 kPa, x1 = 1).

With `O=P([O-])([O-])[O-].[Gd+3]` [gadolinium orthophosphate], in series [1], the mass density is listed as 5980 ± 40 kg/m3.

Regarding `O=P([O-])([O-])[O-].[Gd+3]` [gadolinium orthophosphate] + O=P([O-])([O-])[O-].[La+3], the excess molar enthalpy in series [2] (x1 = 0.24) was determined as 0.275 ± 0.287 kcal/mol; in series [2] (x1 = 0.44), 0.777 ± 0.287 kcal/mol; in series [2] (x1 = 0.55), 0.705 ± 0.311 kcal/mol; in series [2] (x1 = 0.76), 0.521 ± 0.239 kcal/mol. Further, the mass density was 5160 ± 30 kg/m3 in series [3] (100 kPa, x1 = 0.11); 5260 ± 30 kg/m3 in series [3] (100 kPa, x1 = 0.24); 5340 ± 30 kg/m3 in series [3] (100 kPa, x1 = 0.34); 5440 ± 40 kg/m3 in series [3] (100 kPa, x1 = 0.44); 5540 ± 30 kg/m3 in series [3] (100 kPa, x1 = 0.55); 5630 ± 30 kg/m3 in series [3] (100 kPa, x1 = 0.64). Also, the mass density in series [3] (100 kPa, x1 = 0.76) is listed as 5740 ± 40 kg/m3; in series [3] (100 kPa, x1 = 0.84), 5820 ± 40 kg/m3; in series [3] (100 kPa, x1 = 0.92), 5900 ± 40 kg/m3; in series [3] (100 kPa, x1 = 1) it was 5980 ± 40 kg/m3.

`O=P([O-])([O-])[O-].[La+3]` [lanthanum orthophosphate]: the mass density in series [1] is reported as 5060 ± 30 kg/m3.

In the case of `O=P([O-])([O-])[O-].[La+3]` [lanthanum orthophosphate] + O=P([O-])([O-])[O-].[Eu+3], the mass density in series [3] (101 kPa, x2 = 0) was found to be 5060 ± 30 kg/m3.

For the compound `O=P([O-])([O-])[O-].[La+3]` [lanthanum orthophosphate] + O=P([O-])([O-])[O-].[Gd+3], in series [3] (100 kPa, x2 = 0), the mass density came out at 5060 ± 30 kg/m3.
